Data: US8772029B2, “Modulation of oocyte meiotic progression and oocyte activation” (Northwestern University, priority 2011, dated 2014)
Entries after “also recorded” stand apart in the source; their conditions may differ. Peptide text beside a SMILES is read from it. * marks the point of attachment. Cbz = O=C(OCc1ccccc1)*

Legend:
MII eggs = test: Activation of in vivo ovulated MII eggs (SrCl2, TPEN, ZnPT pre-treatment)
Method: Ovulated MII eggs were collected as described above. Eggs were transferred to KSOM medium with or without 10 μM ZnPT (1:1000 dilution of a 10 mM stock in DMSO) for exactly 5 minutes. Eggs were then washed in KSOM and allowed to recover for 10-15 minutes prior to activation. For SrCl2 activation, eggs were transferred to drops of calcium-free KSOM containing 10 mM SrCl2 for 2 hours, followed by 4 additional hours of culture in calcium-containing KSOM without SrCl2. TPEN activation was performed as previously described (Kim et al., 2011); eggs were cultured for 6 hours in KSOM containing 10 μM TPEN. Unactivated controls were cultured in KSOM for the same 6 hour time period to assess levels of spontaneous parthenogenesis.
MII eggs were treated with the ionophore zinc pyrithione (ZnPT) for 5 minutes to increase intracellular zinc. Following a 10-15 minute recovery period, eggs were then treated with activating agents SrCl2 or TPEN.

[1] = system: zinc-insufficient oocytes; test: Spindle phenotype scoring after IVM in TPEN with proteasome inhibitor MG132 added after 10 h; format: cell-based, mouse; conditions: TPEN 10 h, then TPEN + 20 μM MG132 6 h
Method: For IVM studies, immature female CD1 mice (17 to 21 day old) were injected with 5IU equine chorionic gonadotropin (eCG) (Calbiochem, La Jolla, CA) in 100 μL sterile phosphate-buffered saline (PBS), intraperitoneally. After 44 to 48 hours, mice were anesthetized using isoflurane and euthanized by cervical dislocation. Dissected ovaries were placed in Leibovitz L-15 medium containing 1% FBS (L-15/FBS) and 0.2mM 3-isobutyl-1-methylxanthine (IBMX), and large antral follicles were punctured using 28 gauge needles to release cumulus oocyte complexes (COCs). COCs were washed through several drops of culture medium consisting of Minimum Essential Medium (MEM)-alpha with GLUTAMAX supplemented with 10% FBS, 1.5IU/mL human chorionic gonadotropin (hCG), and 5ng/mL epidermal growth factor and placed in culture medium with or without 10 μM N,N,N′,N′-tetrakis(2-pyridylmethyl) ethylenediamine (TPEN). In some experiments Z-Leu-Leu-Leu-al (MG132) was added to culture medium at 20 μM. COCs were cultured in drops of pre-equilibrated medium covered with embryo quality mineral oil at 37° C. in 5% CO2 with a humid environment. Ovulated MII eggs were collected from 4 to 6 week old mice primed with 5IU PMSG followed 48 h later by 5IU hCG. Oviducts were dissected into L-15/FBS, and eggs were removed and treated with 0.03% (w/v) hyaluronidase to remove cumulus cells. Eggs were washed and cultured in potassium simplex optimized medium (KSOM) (Millipore, Billerica, MA) covered with embryo quality mineral oil at 37° C. in 5% CO2.
Oocytes were denuded of cumulus cells and fixed in a microtubule stabilizing buffer (Ibanez et al., 2005) containing 2% formaldehyde and 1% Triton X-100 for 30 min at 37° C. Oocytes were washed and blocked in PBS containing 0.1M glycine, 3mg/mL BSA, 0.01% Tween 20, and 0.01% sodium azide for at least 1 h and were stored in blocking solution at 4° C. for up to 2 weeks. Oocytes were incubated with anti-tubulin antibody (1:100) for 1 h at 37C. followed by three washes in blocking solution. They were then incubated for 1 h in AlexaFluor-488 conjugated anti-mouse secondary antibody (5μg/mL) and rhodamine-phalloidin (2U/mL), washed three additional times, and mounted in VECTASHIELD with DAPI. Microscopy was performed using a Leica SP5 inverted laser-scanning confocal microscope with a 63x oil immersion objective (Leica Microsystems, Heidelberg, Germany). Images were processed using LAS AF software (Leica Microsystems).
It has been previously shown that zinc-insufficient oocytes fail to increase MPF activity following the first meiotic division and have low CCNB1 protein levels (Bernhardt et al., 2010). In order to determine whether this decrease in CCNB1 is the major cause of the observed meiotic arrest phenotype, it was tested whether increasing CCNB1 would be sufficient to rescue MII entry in zinc-insufficient oocytes by inhibiting the proteasome at the end of the MI-MII transition, thereby halting CCNB1 degradation. Experimental oocytes were cultured for 10 hours in TPEN-containing medium and were then transferred into medium containing TPEN as well as the proteasome inhibitor Z-Leu-Leu-Leu-al (MG132) at 20 μM concentration. MG132 was added after first polar body extrusion, because earlier addition would result in MI arrest due to failure to degrade APC/C targets that prevent cell division. Oocytes were cultured for an additional 6 h in the presence of MG132 to allow time for CCNB1 reaccumulation, for a total 16 h IVM culture period. Proteasome inhibition led to a partial rescue of the zinc insufficiency phenotype. 69% of treated oocytes formed spindle-like structures, and none were in telophase I arrest, despite being cultured in the presence of TPEN for the entire culture period (FIG. 2, A; Table 2).
A majority of zinc-insufficient oocytes treated with MG132 following the first meiotic division transition progress beyond telophase-I arrest and form MII spindle-like structures. […]

MPF activity = test: Histone H1 kinase assay on single oocytes/eggs (MPF activity); format: cell-based, mouse; conditions: TPEN 10 h, then TPEN + 20 μM MG132 6 h
Method: Histone H1 and myelin basic protein (MBP) dual kinase assays were performed as previously described (Svoboda et al., 2000). Dried gels were exposed to Kodak BIOMAX MR films for 12 to 72 hours at −80° C. using Kodak intensifying screens; films were developed, scanned, and analyzed using ImageJ software. Assays were performed on single oocytes, and densitometric analysis is expressed relative to levels in control eggs.

CCNB1 = test: Western blot for CCNB1 in oocytes; format: cell-based, mouse; conditions: TPEN 10 h, then TPEN + 20 μM MG132 6 h
Method: Western blotting was performed essentially as previously described (Bernhardt et al., 2010). Briefly, 15 to 50 cumulus-denuded oocytes were transferred in a minimal amount of medium to microcentrifuge tubes and immediately lysed in 8 μL of 1x SDSPAGE Sample Buffer (Laemmli, 1970). SDS-PAGE gels were run using the Invitrogen NuPAGE system and transferred to Immobilon-P PVDF membranes (Millipore, Billerica, MA). Blocking and antibody incubations were in 2% w/v ECL Advanced Blocking Reagent (Amersham) in TBS-T (20mM Tris, pH7.4, 137mM NaC1, 0.1% Tween20 v/v). Anti-CCNB1antibody was diluted 1:500, anti-FBXO43 was used at 1:1000 dilution, and anti-tubulin antibody was used at 1:10,000. HRP-conjugated secondary antibodies were diluted 1:10,000. Detection was performed using Amersham ECL Advanced detection reagent. BIOMAX MR films (Kodak, Rochester, NY) were exposed and developed, or an Alpha-Innotech (San Learndo, CA) MultiImage II system was used.

In the case of `[Cl-].[Cl-].[Sr+2]` [SrCl2], the “egg activation (second polar body and PN or PN-like structures)” value (MII eggs; control MII eggs, by 6 hours post activation, 10 mM SrCl2 2 h or 10 μM TPEN 6 h) is reported as “activated normally”.

`CC(C)C[C@@H](C=O)NC(=O)[C@H](CC(C)C)NC(=O)[C@H](CC(C)C)NC(=O)OCc1ccccc1` [MG132, Z-Leu-Leu-Leu-al] (Cbz-Leu-Leu-Leu-aldehyde) was tested, and the “oocytes with some degree of MII spindle formation (spindle-like structures)” value [1] was 69%, the “MII (aligned metaphase plate)” value ([1]; n=26) was 19% and the other spindle phenotype ([1]; n=26) was 15%. For the same compound, the “persisting midbody or chromatin mass” value ([1]; n=26) was 15%, the “spindle with chr. scattered along length” value ([1]; n=26) was 19% and the “spindle with ≦3 chr. out of place” value ([1]; n=26) was 31%. The “MPF activity (histone H1 kinase) compared to oocytes cultured with TPEN alone” value (MPF activity) was “increased” and the CCNB1 protein levels (CCNB1) was “only partially restores; also recorded: only slightly increased”.

For zinc pyrithione [ZnPT], the “MII spindle organisation after ZnPT” value (MII eggs; 10 μM ZnPT 5 minutes, unactivated eggs and SrCl2-treated eggs, 6 hours of culture) was “caused spindle abnormalities”, the “egg activation by TPEN after ZnPT pre-treatment” value (MII eggs; MII eggs, 10 μM ZnPT 5 minutes, then 10 μM TPEN 6 h) was “formed second polar bodies and PN-like structures” and the “egg activation by SrCl2 after ZnPT pre-treatment” value (MII eggs; MII eggs, 10 μM ZnPT 5 minutes, then 10 mM SrCl2) was “did not show signs of activation”.
